Data published in patent US6927233B1, “5ht2 agonists for controlling IOP and treating glaucoma” (Alcon, Inc., priority 2000, dated 2005).

Tested on: lasered monkey model of ocular hypertension
Experiment: IOP response in the lasered monkey model of ocular hypertension
Type: in vivo, cynomolgus monkeys
Conditions: for IOP Response % Change, 1 hr / IOP decrease from baseline (mmHg) / IOP Response % Change, 3 hr / IOP Response % Change, 6 hr: 300 μg topical, one 30 μL aliquot to right (lasered) eye, change from baseline IOP; for effect on IOP (in words): dosed at 300 μg, lasered monkey model of ocular hypertension
Method: Intraocular pressure was determined with an Alcon Pneumatonometer after light corneal anesthesia with 0.1% proparacaine. Eyes were washed with saline after-each measurement. After a baseline IOP measurement, test compound was instilled in one 30 μL aliquot to the right eyes only of nine cynomolgus monkeys. Vehicle was instilled in the right eyes of six additional animals. Subsequent IOP measurements were taken at 1, 3, and 6 hours. A compound is considered efficacious in this model of ocular hypertension if there is a decrease in the baseline IOP of the lasered eye (O.D.) of at least 20% following topical administration.

SMILES	IOP Response % Change, 1 hr (1 hr after dosing) [%]	IOP decrease from baseline (mmHg) (1 hr after dosing)	IOP Response % Change, 3 hr (3 hr after dosing) [%]	IOP decrease from baseline (mmHg) (3 hr after dosing)	IOP Response % Change, 6 hr (6 hr after dosing) [%]	IOP decrease from baseline (mmHg) (6 hr after dosing)	effect on IOP (in words)
CC(N)Cn1ncc2ccc(O)cc21 (single isomer, unassigned; isomer 1) [S-(+)-isomer, 1-(2-aminopropyl)-indazol-6-ol]	−15.0	6.4	−35.3	14.8	−40.8	17.1	significant decrease in IOP
CC(N)Cn1ncc2ccc(O)cc21 (centres unmarked) [Compound, 1-(2-aminopropyl)-indazol-6-ol]	−17.6	7.3	−28.1	11.8	−33.8	14.6	significant decrease in IOP
